PMC3350394, “Kinetic analysis and test-retest variability of the radioligand [^11C](R)-PK11195 binding to TSPO in the human brain - a PET study in control subjects” (EJNMMI Research, 2012)
“And” between values parts separate entries of the source, which are not always exact repeats. Equal values may be shown once.

Key:
ABCG2 = system: ABCG2; design: method as in PMID 19948230; settings: cited from earlier work
TSPO [1] = target: TSPO (Homo sapiens, UniProt P30536); assay: PET, modified 2TCM with shared K1/k2; assay type: in vivo; design: from tissue; host or cells: living human brain (in vivo PET in six control subjects); settings: first PET measurement
Method: In addition, data were analysed using a modified 2TCM model which fitted parameters K1/k2, k2, k3 and k4 of the model to several TACs simultaneously in a way that the parameter K1/k2 was shared between regions. First, all ROIs primarily consisting of the grey matter, including the ROI of the typical GM uptake, were fitted in this way then followed by a fit involving white matter regions and, again, the ROI of the typical GM uptake. The ROI of the typical GM uptake was used in the second fitting session to allow for a coupling of K1/k2 between that region and white matter ROIs. However, the parameters obtained for the typical GM ROI in the first session were retained for final analysis.

TSPO [2] = system: TSPO; design: method as in PMID 1782994; settings: grey matter; baboons; indirect quantitative approach; cited from earlier work
[3] = cortical grey matter, individual subjects 1-6
[4] = cortical grey matter, mean of 6 subjects
[5] = white matter, individual subjects 1-6
[6] = white matter, mean of 6 subjects

TSPO (Homo sapiens, UniProt P30536), sequence (P30536 whole entry): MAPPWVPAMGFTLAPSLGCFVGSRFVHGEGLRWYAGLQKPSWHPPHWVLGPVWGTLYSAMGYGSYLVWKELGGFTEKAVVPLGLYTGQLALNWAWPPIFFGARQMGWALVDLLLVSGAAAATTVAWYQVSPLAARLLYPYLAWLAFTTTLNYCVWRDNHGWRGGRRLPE

With `CC[C@@H](C)N([11CH3])C(=O)c1cc2ccccc2c(-c2ccccc2Cl)n1` [[^11C](R)-PK11195] as the compound, how does the “substrate for ABC transporter” value (ABCG2) read?
Its value is “not a substrate”.

What about the k2 (TSPO [1]; cortical grey matter) of the same compound?
Its k2 is 0.228 min⁻¹.

And the k3 (TSPO [1]; cortical grey matter)?
Its k3 is 0.053 min⁻¹.

What about the K1 (TSPO [1]; [3]) of the same compound?
The K1 was 0.050 mL/cc/min and 0.092 mL/cc/min and 0.070 mL/cc/min and 0.089 mL/cc/min and 0.046 mL/cc/min and 0.080 mL/cc/min.

What about the k2 (TSPO [1]; [3]) of the same compound?
Its k2 is 0.180 min⁻¹ and 0.236 min⁻¹ and 0.228 min⁻¹ and 0.307 min⁻¹ and 0.185 min⁻¹ and 0.235 min⁻¹.

And the k3 (TSPO [1]; [3])?
Its k3 is 0.021 min⁻¹ and 0.055 min⁻¹ and 0.046 min⁻¹ and 0.124 min⁻¹ and 0.035 min⁻¹ and 0.036 min⁻¹.

What about the k4 (TSPO [1]; [3]) of the same compound?
Its k4 is 0.014 min⁻¹ and 0.054 min⁻¹ and 0.025 min⁻¹ and 0.061 min⁻¹ and 0.026 min⁻¹ and 0.020 min⁻¹.

And the K1 (TSPO [1]; [4])?
The K1 was 0.071 mL/cc/min.

And the k4 (TSPO [1]; [4])?
Its k4 is 0.033 min⁻¹.

What about the k2 (TSPO [1]; white matter) of the same compound?
Its k2 is 0.159 min⁻¹.

And the k3 (TSPO [1]; white matter)?
Its k3 is 0.036 min⁻¹.

And the K1 (TSPO [1]; [5])?
Its K1 is 0.067 mL/cc/min and 0.056 mL/cc/min and 0.062 mL/cc/min and 0.032 mL/cc/min and 0.061 mL/cc/min and 0.036 mL/cc/min.

What about the k2 (TSPO [1]; [5]) of the same compound?
The k2 was 0.169 min⁻¹ and 0.180 min⁻¹ and 0.159 min⁻¹ and 0.129 min⁻¹ and 0.182 min⁻¹ and 0.138 min⁻¹.

And the k3 (TSPO [1]; [5])?
The k3 was 0.040 min⁻¹ and 0.045 min⁻¹ and 0.046 min⁻¹ and 0.026 min⁻¹ and 0.033 min⁻¹ and 0.024 min⁻¹.

And the k4 (TSPO [1]; [5])?
Its k4 is 0.033 min⁻¹ and 0.021 min⁻¹ and 0.027 min⁻¹ and 0.013 min⁻¹ and 0.012 min⁻¹.

And the K1 (TSPO [1]; [6])?
The K1 was 0.052 mL/cc/min.

And the k4 (TSPO [1]; [6])?
Its k4 is 0.020 min⁻¹.

What about the “fraction of non-specifically bound radioligand” value (TSPO [2]) of the same compound?
Its value is “about 60%”.
